The assay deals with T1, human adenosine A2A receptor (Homo sapiens, UniProt P29274).
T1 construct: expressed in transfected cells; host or cells: CHO cells, Semliki Forest virus expression system; washed membrane pellet used
Put plainly: [3H]-SCH-58261 binding assay at the human adenosine A2A receptor. Particulars: read-out: pKi value (converted). The protocol:
Human Adenosine A2A Receptor
The human adenosine A2A receptor was recombinantly expressed in chinese hamster ovary (CHO) cells using the semliki forest virus expression system. Cells were harvested, washed twice by centrifugation, homogenised and again washed by centrifugation. The final washed membrane pellet was suspended in a Tris (50 mM) buffer containing 120 mM NaCl, 5 mM KCl, 2 mM CaCl2 and 10 mM MgCl2 (pH 7.4) (buffer A). The [^3H]-SCH-58261 (Dionisotti et al., 1997, Br J Pharmacol 121, 353; 1 nM) binding assay was carried out in 96-well plates in the presence of 2.5 μg of membrane protein, 0.5 mg of Ysi-poly-1-lysine SPA beads and 0.1 U adenosine deaminase in a final volume of 200 μl of buffer A. Non-specific binding was defined using xanthine amine congener (XAC; 2 μM). Compounds were tested at 10 concentrations from 10 μM-0.3 nM. All assays were conducted in duplicate and repeated at least two times. Assay plates were incubated for 1 hour at room temperature before centrifugation and then bound ligand determined using a Packard Topcount scintillation counter. IC50 values were calculated using a non-linear curve fitting program and Ki values calculated using the Cheng-Prussoff equation.

Experimental findings from US7317007B2, “Benzothiazole derivatives with activity as adenosine receptor ligands” (Hoffmann-La Roche Inc., priority 2000, dated 2008) are described below.

Where a name gives a salt, the structure may show the parent alone.

T1 sequence (P29274 whole entry): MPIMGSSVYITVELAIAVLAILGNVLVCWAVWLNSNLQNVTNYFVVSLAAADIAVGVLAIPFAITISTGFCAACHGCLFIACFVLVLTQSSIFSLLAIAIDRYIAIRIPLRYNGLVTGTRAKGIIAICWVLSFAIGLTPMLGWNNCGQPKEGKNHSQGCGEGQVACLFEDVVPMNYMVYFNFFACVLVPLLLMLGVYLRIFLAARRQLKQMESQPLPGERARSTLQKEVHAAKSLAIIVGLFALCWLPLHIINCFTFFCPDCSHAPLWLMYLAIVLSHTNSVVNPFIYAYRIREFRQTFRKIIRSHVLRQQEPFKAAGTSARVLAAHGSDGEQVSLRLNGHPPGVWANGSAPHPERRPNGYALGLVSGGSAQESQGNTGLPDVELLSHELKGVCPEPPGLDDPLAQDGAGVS

As for `COc1ccc(-c2ccccc2)c2sc(NC(=O)c3ccc(C)s3)nc12` [Example 3, 5-Methyl-thiophene-2-carboxylic acid (4-methoxy-7-phenyl-benzothiazol-2-yl)-amide], the Ki is 1.58 nM.
Then `COc1ccc(-c2ccccc2)c2sc(NC(=O)c3ccc(C)o3)nc12` [Example 10, 5-Methyl-furan-2-carboxylic acid (4-methoxy-7-phenyl-benzothiazol-2-yl)-amide], with 1 nM; and `COc1ccc(-c2ccccc2)c2sc(NC(=O)c3ccc(CO)cc3)nc12` [Example 17, 4-Hydroxymethyl-N-(4-methoxy-7-phenyl-benzothiazol-2-yl)-benzamide], with 0.501 nM.
Then `COc1ccc(-c2ccccc2)c2sc(NC(=O)c3ccc(F)cc3)nc12` [Example 23, 4-Fluoro-N-(4-methoxy-7-phenyl-benzothiazol-2-yl)-benzamide], with 1.26 nM; and `COc1ccc(-c2ccccc2)c2sc(NC(=O)c3ccncc3)nc12` [Example 36, N-(4-Methoxy-7-phenyl-benzothiazol-2-yl)-isonicotinamide], with 0.794 nM.
For `COc1ccc(-c2ccnc(C)c2)c2sc(NC(=O)c3ccc(C)s3)nc12` [Example 61, 5-Methyl-thiophene-2-carboxylic acid [4-methoxy-7-(2-methyl-pyridin-4-yl)-benzothiazol-2-yl]-amide] the value was 1.26 nM.
As to `COc1ccc(-c2cccc(N)c2)c2sc(NC(=O)c3ccc(C)s3)nc12` [Example 62, 5-Methyl-thiophene-2-carboxylic acid [7-(3-amino-phenyl)-4-methoxy-benzothiazol-2-yl]-amide], the Ki is 0.794 nM.
For `COCCNCc1ccc(C(=O)Nc2nc3c(OC)ccc(-c4ccccc4)c3s2)cc1` [Example 91, 4-[(2-Methoxy-ethylamino)-methyl]-N-(4-methoxy-7-phenyl-benzothiazol-2-yl)-benzamide hydrochloride salt (1:1)] the value was 1.58 nM; for `COc1ccc(-c2ccccc2)c2sc(NC(=O)c3ccc(CNCCO)cc3)nc12` [Example 92, 4-[(2-Hydroxy-ethylamino)-methyl]-N-(4-methoxy-7-phenyl-benzothiazol-2-yl)-benzamide hydrochloride salt (1:1)], 1.26 nM.
For `COc1ccc(-c2ccccc2)c2sc(NC(=O)c3ccc(CNCc4ccncc4)cc3)nc12` [Example 96, N-(4-Methoxy-7-phenyl-benzothiazol-2-yl)-4-{[(pyridin-4-ylmethyl)-amino]-methyl}-benzamide hydrochloride salt (1:2)] the value was 1.58 nM.
For `COc1ccc(-c2ccccc2)c2sc(NC(=O)c3ccc(Cn4ccnc4)cc3)nc12` [Example 100, 4-Imidazol-1-ylmethyl-N-(4-methoxy-7-phenyl-benzothiazol-2-yl)-benzamide hydrochloride salt (1:1)] the value was 0.501 nM; for `COc1ccc(-c2ccccc2)c2sc(NC(=O)c3ccc(CNCc4cccnc4)cc3)nc12` [Example 107, N-(4-Methoxy-7-phenyl-benzothiazol-2-yl)-4-{[(pyridin-3-ylmethyl)-amino]-methyl}-benzamide hydrochloride salt (1:2)], 1.58 nM; for `COc1ccc(-c2ccccc2)c2sc(NC(=O)c3ccc(CN4CCC(O)CC4)cc3)nc12` [Example 108, 4-(4-Hydroxy-piperidin-1-ylmethyl)-N-(4-methoxy-7-phenyl-benzothiazol-2-yl)-benzamide hydrochloride salt (1:1)], 1.26 nM.
Take `COc1ccc(-c2ccccc2)c2sc(NC(=O)c3ccc(CN)cc3)nc12` [Example 121, 4-Aminomethyl-N-(4-methoxy-7-phenyl-benzothiazol-2-yl)-benzamide hydrochloride salt (1:1)]: the Ki is 1 nM.
For `COc1ccc(-c2ccccc2)c2sc(NC(=O)c3ccc(CN4CC[C@H](N(C)C)C4)cc3)nc12` [Example 125, 4-(3 (S)-Dimethylamino-pyrrolidin-1-ylmethyl)-N-(4-methoxy-7-phenyl-benzothiazol-2-yl)-benzamide hydrochlorde salt (1:2)] the value was 1 nM.
For `COc1ccc(-c2ccccc2)c2sc(NC(=O)N3CCOCC3)nc12` [Example 157, Morpholine-4-carboxylic acid (4-methoxy-7-phenyl-benzothiazol-2-yl)-amide] the value was 1.26 nM; for `COC(=O)Nc1nc2c(OC)ccc(-c3csc(-c4ccc(C)nc4)n3)c2s1` [Example 201, {4-Methoxy-7-[2-(6-methyl-pyridin-3-yl)-thiazol-4-yl]-benzothiazol-2-yl}-carbamic acid methyl ester], 2.51 nM.
Then `COCCN(C)Cc1ccc(C(=O)Nc2nc3c(OC)ccc(-c4csc(-c5ccc(C)nc5)n4)c3s2)cc1` [Example 238, 4-{[(2-Methoxy-ethyl)-methyl-amino]-methyl}-N-{4-methoxy-7-[2-(6-methyl-pyridin-3-yl)-thiazol-4-yl]-benzothiazol-2-yl}-benzamide], with 2 nM.
Turning to `COc1ccc(-c2csc(-c3ccc(C)nc3)n2)c2sc(NC(=O)N3CCOCC3)nc12` [Example 258], the Ki was 1.26 nM.
For the molecule `COc1ccc(N2CCOCC2)c2sc(NC(=O)c3ccc(C(F)(F)F)cc3)nc12` [Example 271, N-(4-Methoxy-7-morpholin-4-yl-benzothiazol-2-yl)-4-trifluoromethyl-benzamide], the Ki was 2.51 nM.
For `COc1ccc(N2CCOCC2)c2sc(NC(=O)c3ccc(F)cc3)nc12` [Example 275, 4-Fluoro-N-(4-methoxy-7-morpholin-4-yl-benzothiazol-2-yl)-benzamide] the value was 2 nM.
Then `COc1ccc(N2CCOCC2)c2sc(NC(=O)c3ccccc3)nc12` [Example 277, N-(4-Methoxy-7-morpholin-4-yl-benzothiazol-2-yl)-benzamide], with 2 nM; and `CCN(CCOC)Cc1cc(C(=O)Nc2nc3c(OC)ccc(N4CCOCC4)c3s2)ccc1Cl` [Example 278, 4-Chloro-3-{[ethyl-(2-methoxy-ethyl)-amino]-methyl}-N-(4-methoxy-7-morpholin-4-yl-benzothiazol-2-yl)-benzamide], with 3.16 nM.
For `CNCc1cccc(C(=O)Nc2nc3c(OC)ccc(N4CCOCC4)c3s2)c1` [Example 279, N-(4-Methoxy-7-morpholin-4-yl-benzothiazol-2-yl)-3-methylaminomethyl-benzamide] the value was 1.58 nM; for `CNCc1cc(C(=O)Nc2nc3c(OC)ccc(N4CCOCC4)c3s2)ccc1Cl` [Example 280, 4-Chloro-N-(4-methoxy-7-morpholin-4-yl-benzothiazol-2-yl)-3-methylaminomethyl-benzamide], 2 nM.
In the case of `COCCNCc1cc(C(=O)Nc2nc3c(OC)ccc(N4CCOCC4)c3s2)ccc1Cl` [Example 282, 4-Chloro-3-[(2-methoxy-ethylamino)-methyl]-N-(4-methoxy-7-morpholin-4-yl-benzothiazol-2-yl)-benzamide], the Ki is 2.51 nM.
For `COc1ccc(N2CCOCC2)c2sc(NC(=O)c3ccc(Cl)c(CN4CCCC4)c3)nc12` [Example 283, 4-Chloro-N-(4-methoxy-7-morpholin-4-yl-benzothiazol-2-yl)-3-pyrrolidin-1-ylmethyl-benzamide] the value was 1 nM; for `COCCNCc1cccc(C(=O)Nc2nc3c(OC)ccc(N4CCOCC4)c3s2)c1` [Example 286], 1.58 nM.
In the case of `COCCN(C)Cc1cccc(C(=O)Nc2nc3c(OC)ccc(N4CCOCC4)c3s2)c1` [Example 287, 3-{[(2-Methoxy-ethyl)-methyl-amino]-methyl}-N-(4-methoxy-7-morpholin-4-yl-benzothiazol-2-yl)-benzamide], the Ki is 3.16 nM.
For `COc1ccc(N2CCOCC2)c2sc(NC(=O)c3cccc(CN4CCCC4)c3)nc12` [Example 289, N-(4-Methoxy-7-morpholin-4-yl-benzothiazol-2-yl)-3-pyrrolidin-1-ylmethyl-benzamide] the value was 1.26 nM; for `CCOCCNCc1ccc(C(=O)Nc2nc3c(OC)ccc(N4CCOCC4)c3s2)cc1` [Example 290, 4-[(2-Ethoxy-ethylamino)-methyl]-N-(4-methoxy-7-morpholin-4-yl-benzothiazol-2-yl)-benzamide], 2.51 nM; for `CNCc1ccc(C(=O)Nc2nc3c(OC)ccc(N4CCOCC4)c3s2)cc1` [Example 292, N-(4-Methoxy-7-morpholin-4-yl-benzothiazol-2-yl)-4-methylaminomethyl-benzamide], 1.58 nM.
In the case of `COc1ccc(N2CCOCC2)c2sc(NC(=O)c3ccc(CSCCN(C)C)cc3)nc12` [Example 298, 4-(2-Dimethylamino-ethylsulfanylmethyl)-N-(4-methoxy-7-morpholin-4-yl-benzothiazol-2-yl)-benzamide], the Ki is 2 nM.
For `CCOCCN(CC)Cc1ccc(C(=O)Nc2nc3c(OC)ccc(N4CCOCC4)c3s2)cc1` [Example 301, 4-{[(2-Ethoxy-ethyl)-ethyl-amino]-methyl}-N-(4-methoxy-7-morpholin-4-yl-benzothiazol-2-yl)-benzamide], the Ki was 3.16 nM.
For the molecule `CCOCCN(C)Cc1ccc(C(=O)Nc2nc3c(OC)ccc(N4CCOCC4)c3s2)cc1` [Example 304, 4-{[(2-Ethoxy-ethyl)-methyl-amino]-methyl}-N-(4-methoxy-7-morpholin-4-yl-benzothiazol-2-yl)-benzamide], the Ki was 3.16 nM.
